How the values were obtained:
Assay in all cases: relative viability (nuclei count vs DMSO), 5 days (fraction); higher = more cells survive
201T = test system: 201T
How it was run: (§1)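 One day after seeding in 1536-well plates, lung cancer cell lines were dosed by pin tool. Dosing was either single-drug or a fixed anchor-drug dose plus five library-drug doses (not always all listed) in √10 steps. After 5 days, nuclei were stained in one fix-and-stain step and counted on 4× images, and relative viability is the nuclei count of treated wells over that of vehicle wells, given as the median of duplicate plates.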

A-427 = test system: A-427
How it was run: as §1

ABC-1 = test system: ABC-1
How it was run: as §1

COR-L 105 = test system: COR-L 105
How it was run: as §1

COR-L23 = test system: COR-L23
How it was run: as §1

EKVX = test system: EKVX
How it was run: as §1

EMC-BAC-2 = test system: EMC-BAC-2
How it was run: as §1

EPLC-272H = test system: EPLC-272H
How it was run: as §1

HCC-44 = test system: HCC-44
How it was run: as §1

HCC-827 = test system: HCC-827
How it was run: as §1

LCLC-103H = test system: LCLC-103H
How it was run: as §1

LU99A = test system: LU99A
How it was run: as §1

NCI-H1437 = test system: NCI-H1437
How it was run: as §1

NCI-H1666 = test system: NCI-H1666
How it was run: as §1

NCI-H1792 = test system: NCI-H1792
How it was run: as §1

NCI-H2009 = test system: NCI-H2009
How it was run: as §1

NCI-H2023 = test system: NCI-H2023
How it was run: as §1

NCI-H2087 = test system: NCI-H2087
How it was run: as §1

NCI-H3122 = test system: NCI-H3122
How it was run: as §1

NCI-H520 = test system: NCI-H520
How it was run: as §1

PC-14 = test system: PC-14
How it was run: as §1

RERF-LC-KJ = test system: RERF-LC-KJ
How it was run: as §1

SK-LU-1 = test system: SK-LU-1
How it was run: as §1

SW 1573 = test system: SW 1573
How it was run: as §1

SW 900 = test system: SW 900
How it was run: as §1

SMILES: Nc1cccc2c1CN(C1CCC(=O)NC1=O)C2=O (configuration not stated) [Lenalidomide] + Nc1ncn([C@H]2C[C@H](O)[C@@H](CO)O2)c(=O)n1 [Decitabine] (partner 2 µM)
- relative viability (201T; first compound 0.253 µM): 0.874
- relative viability (201T; first compound 0.8 µM): 0.927
- relative viability (201T; first compound 2.53 µM): 0.88
- relative viability (201T; first compound 8 µM): 0.816
- relative viability (A-427; first compound 0.253 µM): 0.566
- relative viability (A-427; first compound 0.8 µM): 0.573
- relative viability (A-427; first compound 2.53 µM): 0.646
- relative viability (A-427; first compound 8 µM): 0.552
- relative viability (ABC-1; first compound 0.253 µM): 0.929
- relative viability (ABC-1; first compound 0.8 µM): 1.05
- relative viability (ABC-1; first compound 2.53 µM): 0.827
- relative viability (ABC-1; first compound 8 µM): 0.939
- relative viability (COR-L 105; first compound 0.253 µM): 0.684
- relative viability (COR-L 105; first compound 0.8 µM): 0.704
- relative viability (COR-L 105; first compound 2.53 µM): 0.763
- relative viability (COR-L 105; first compound 8 µM): 0.711
- relative viability (COR-L23; first compound 0.253 µM): 0.416
- relative viability (COR-L23; first compound 0.8 µM): 0.395
- relative viability (COR-L23; first compound 2.53 µM): 0.491
- relative viability (COR-L23; first compound 8 µM): 0.409
- relative viability (EKVX; first compound 0.253 µM): 0.326
- relative viability (EKVX; first compound 0.8 µM): 0.4
- relative viability (EKVX; first compound 2.53 µM): 0.336
- relative viability (EKVX; first compound 8 µM): 0.331
- relative viability (EMC-BAC-2; first compound 0.253 µM): 0.998
- relative viability (EMC-BAC-2; first compound 0.8 µM): 0.929
- relative viability (EMC-BAC-2; first compound 2.53 µM): 0.995
- relative viability (EMC-BAC-2; first compound 8 µM): 0.801
- relative viability (EPLC-272H; first compound 0.253 µM): 0.382
- relative viability (EPLC-272H; first compound 0.8 µM): 0.381
- relative viability (EPLC-272H; first compound 2.53 µM): 0.413
- relative viability (EPLC-272H; first compound 8 µM): 0.32
- relative viability (HCC-44; first compound 0.253 µM): 0.946
- relative viability (HCC-44; first compound 0.8 µM): 0.781
- relative viability (HCC-44; first compound 2.53 µM): 1.01
- relative viability (HCC-44; first compound 8 µM): 0.853
- relative viability (HCC-827; first compound 0.253 µM): 0.336
- relative viability (HCC-827; first compound 0.8 µM): 0.284
- relative viability (HCC-827; first compound 2.53 µM): 0.348
- relative viability (HCC-827; first compound 8 µM): 0.35
- relative viability (LCLC-103H; first compound 0.253 µM): 0.72
- relative viability (LCLC-103H; first compound 0.8 µM): 0.664
- relative viability (LCLC-103H; first compound 2.53 µM): 0.73
- relative viability (LCLC-103H; first compound 8 µM): 0.651
- relative viability (LU99A; first compound 0.253 µM): 0.894
- relative viability (LU99A; first compound 0.8 µM): 0.823
- relative viability (LU99A; first compound 2.53 µM): 0.868
- relative viability (LU99A; first compound 8 µM): 0.702
- relative viability (NCI-H1437; first compound 0.253 µM): 0.556
- relative viability (NCI-H1437; first compound 0.8 µM): 0.5
- relative viability (NCI-H1437; first compound 2.53 µM): 0.59
- relative viability (NCI-H1437; first compound 8 µM): 0.648
- relative viability (NCI-H1666; first compound 0.253 µM): 0.791
- relative viability (NCI-H1666; first compound 0.8 µM): 0.528
- relative viability (NCI-H1666; first compound 2.53 µM): 0.772
- relative viability (NCI-H1666; first compound 8 µM): 0.647
- relative viability (NCI-H1792; first compound 0.253 µM): 0.568
- relative viability (NCI-H1792; first compound 0.8 µM): 0.454
- relative viability (NCI-H1792; first compound 2.53 µM): 0.541
- relative viability (NCI-H1792; first compound 8 µM): 0.384
- relative viability (NCI-H2009; first compound 0.253 µM): 0.415
- relative viability (NCI-H2009; first compound 0.8 µM): 0.387
- relative viability (NCI-H2009; first compound 2.53 µM): 0.406
- relative viability (NCI-H2009; first compound 8 µM): 0.397
- relative viability (NCI-H2023; first compound 0.253 µM): 0.205
- relative viability (NCI-H2023; first compound 0.8 µM): 0.269
- relative viability (NCI-H2023; first compound 2.53 µM): 0.248
- relative viability (NCI-H2023; first compound 8 µM): 0.231
- relative viability (NCI-H2087; first compound 0.253 µM): 0.31
- relative viability (NCI-H2087; first compound 2.53 µM): 0.303
- relative viability (NCI-H2087; first compound 8 µM): 0.292
- relative viability (NCI-H3122; first compound 0.253 µM): 0.375
- relative viability (NCI-H3122; first compound 0.8 µM): 0.536
- relative viability (NCI-H3122; first compound 2.53 µM): 0.381
- relative viability (NCI-H3122; first compound 8 µM): 0.386
- relative viability (NCI-H520; first compound 0.253 µM): 0.539
- relative viability (NCI-H520; first compound 0.8 µM): 0.548
- relative viability (NCI-H520; first compound 2.53 µM): 0.507
- relative viability (NCI-H520; first compound 8 µM): 0.438
- relative viability (PC-14; first compound 0.253 µM): 0.199
- relative viability (PC-14; first compound 0.8 µM): 0.189
- relative viability (PC-14; first compound 2.53 µM): 0.24
- relative viability (PC-14; first compound 8 µM): 0.226
- relative viability (RERF-LC-KJ; first compound 0.253 µM): 0.717
- relative viability (RERF-LC-KJ; first compound 0.8 µM): 0.655
- relative viability (RERF-LC-KJ; first compound 2.53 µM): 0.65
- relative viability (RERF-LC-KJ; first compound 8 µM): 0.774
- relative viability (SK-LU-1; first compound 0.253 µM): 0.614
- relative viability (SK-LU-1; first compound 0.8 µM): 0.58
- relative viability (SK-LU-1; first compound 2.53 µM): 0.72
- relative viability (SK-LU-1; first compound 8 µM): 0.603
- relative viability (SW 1573; first compound 0.253 µM): 0.536
- relative viability (SW 1573; first compound 0.8 µM): 0.625
- relative viability (SW 1573; first compound 2.53 µM): 0.591
- relative viability (SW 1573; first compound 8 µM): 0.542
- relative viability (SW 900; first compound 2.53 µM): 0.51
- relative viability (SW 900; first compound 8 µM): 0.532
